Assay results published in patent US20110207685A1, “Oral Formulations of Chemotherapeutic Agents” (priority 2008, published 2011).
Values after ≈ are worked out from the molar mass of the structure shown. Read-outs that look alike come from different tables or passages of the source.

Experiments:
HT29 cells = test: In vitro cytotoxicity on HT29 cells; format: cell-based; conditions: Homo sapiens
[1] = MTTD study, one administration per week during three weeks; format: in vivo, mice; conditions: J = 0, 7, 14
Protocol: The schedule of the MTTD studies was one administration per week during three weeks. Each dose was tested on a group of 3 animals and the animals were monitored for 2 weeks after the end of the last treatment, clinical toxicity signs were observed and the animals weight taken every two days.

[2] = Oral MTTD (tolerance) study on xenografted mice; format: in vivo; conditions: for Clinical symptoms: po, J = 1 to 5, mice with s.c. HT-29 tumor
Protocol: A tolerance and efficacy study on xenografted mice, in order to mimic as close as possible the in vivo model of colonic tumor, was carried out. As xenografted mice are very sensitive, the MTTD and efficacy study was done on mice with a subcutaneously implanted HT-29 colorectal human tumor cells.

[3] = Tolerance study (Step 1), relative body weight; format: in vivo, nude mice; conditions: oral IRN alone group (100 mg/kg po qd×5)
Protocol: When subcutaneous HT29 xenografts are detectable and reach a mean tumor volume of 150 mm3, groups of mice are randomly affected to the treatments. Mice without tumors were eliminated.
Mice in the control group received vehicle under a 750 μl volume.
Toxicity of the different treatments are determined as: body weight loss percent (% BWL max)=100−(mean BWx/mean BW1x 100), where BWx is the mean BW at the day of maximal loss during the treatment and BW1 is the mean BW on the 1st day of treatment.
All animals are weighted during the whole treatment period, in order to adjust the volume of drug administration and to calculate the percent body weight loss due to the different treatments.

in vivo = conditions: mouse, plasma
Protocol: Three mice were used per time-point. Only one sampling was performed on the control group.

physchem = conditions: phosphate buffer (control for the cyclodextrin mixtures), aqueous buffer
[4] = free drug; cited from earlier work

## CCc1c2c(nc3ccc(OC(=O)N4CCC(N5CCCCC5)CC4)cc13)-c1cc3c(c(=O)n1C2)COC(=O)[C@]3(O)CC [IRN, Irinotecan]
HT29 cells; HT-29, 96 h, read-out: IC50 [IRN], experiment GF411, HT29 cells, 4 days contact, as IRN concentration
  IC50: 0.75 µg/mL (≈ 1.28 µM)
HT29 cells; HT-29, 96 h, read-out: IC50 [IRN], experiment GF464, HT29 cells, 4 days contact, as IRN concentration
  IC50: 0.8 µg/mL (≈ 1.36 µM)
HT29 cells; HT-29, 96 h, read-out: IC50 [IRN], experiment GF522, HT29 cells, 4 days contact, as IRN concentration
  IC50: 0.85 µg/mL (≈ 1.45 µM)
HT29 cells; HT-29, read-out: Mean IC 50 [IRN], mean of three experiments, HT29 cells, as IRN concentration
  IC50: 0.8 µg/mL (≈ 1.36 µM)
[1]; iv, 25 mg/kg BW
  Clinical symptoms: No clinical sign
[1]; po, 200 mg/kg BW
  Clinical symptoms: No clinical sign
[2]; orally every day for 5 days, xenografted mice
  toxicity / tolerance: induced an important weight loss
[2]; 100 mg/kg BW
  Clinical symptoms: Weight loss, but mice
[2]; 200 mg/kg BW
  Clinical symptoms: Important weight loss
[3]
  body weight loss: more than 15%
In vivo; iv, 20 mg/kg
  AUC: 1280 ng·h/mL
In vivo; oral, 100 mg/Kg
  bioavailability: 27.1%
In vivo; po, 100 mg/kg
  AUC: 1740 ng·h/mL
  Cmax: 477 ng/mL
  Tmax: 2.06 h

## CC(=O)O[C@@]12CO[C@@H]1C[C@H](O)[C@@]1(C)C(=O)[C@H](O)C3=C(C)[C@@H](OC(=O)[C@H](O)[C@@H](NC(=O)OC(C)(C)C)c4ccccc4)C[C@@](O)([C@@H](OC(=O)c4ccccc4)[C@H]21)C3(C)C [docetaxel]
physchem
  solubility: 1.9 ± 0.1 µg/mL (≈ 2.35 µM)

## COc1cccc2c1C(=O)c1c(O)c3c(c(O)c1C2=O)C[C@@](O)(C(=O)CO)C[C@@H]3O[C@H]1C[C@H](N)[C@H](O)[C@H](C)O1 [doxorubicin, Doxorubicin]
[4]
  oral bioavailability compare to i. v. bioavailability: about 5%
